Test results: ChEMBL document CHEMBL1131353, “Structurally similar small molecule photoaffinity CCK-A agonists and antagonists as novel tools for directly probing 7TM receptors-ligand interactions” (Bioorg Med Chem Lett, 1998); call rule not given here
pEC50, pIC50: −log10 of the molar value.

Assays:
[1] = target: T1, Cholecystokinin receptor type A (Rattus norvegicus, UniProt P30551); assay: Displacement of 125I]-D-Tyr-Gly-[(Nle28,31)CCK-26-33] from rat cell membrane Cholecystokinin type A receptor
T1 sequence (P30551 whole entry): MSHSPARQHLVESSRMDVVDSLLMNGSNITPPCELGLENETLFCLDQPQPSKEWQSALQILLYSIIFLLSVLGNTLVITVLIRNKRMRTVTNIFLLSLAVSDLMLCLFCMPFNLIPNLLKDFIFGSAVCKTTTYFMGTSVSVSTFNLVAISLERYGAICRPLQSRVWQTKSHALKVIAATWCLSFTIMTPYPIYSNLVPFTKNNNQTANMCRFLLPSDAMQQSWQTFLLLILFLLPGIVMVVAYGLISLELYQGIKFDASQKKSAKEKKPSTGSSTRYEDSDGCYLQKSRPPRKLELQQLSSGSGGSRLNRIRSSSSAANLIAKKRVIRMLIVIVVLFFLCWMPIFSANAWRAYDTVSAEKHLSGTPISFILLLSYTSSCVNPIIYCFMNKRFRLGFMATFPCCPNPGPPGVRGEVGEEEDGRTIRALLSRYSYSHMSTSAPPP

Rattus norvegicus [2] = species on record: Rattus norvegicus; assay: Compound was tested in vitro for its ability to stimulate dispersed rat pancreatic acini to secrete amylase into the medium using CCK-8 as an agonist control; no activity detected at maximum concentration; format: functional
[3] = target: T2, Cholecystokinin receptor type A (Rattus norvegicus) (UniProt P30551); assay: In vitro efficacy was measured in rat Cholecystokinin type A receptor at 1.0 uM
T2 sequence (whole entry): T1 sequence (P30551 whole entry)

Rattus norvegicus [4] = species on record: Rattus norvegicus; assay: Compound was tested in vitro for its ability to stimulate dispersed rat pancreatic acini to secrete amylase into the medium using CCK-8 as an agonist control; format: functional

Structure (SMILES) | pIC50 [1] | EC50 (Rattus norvegicus [2]) | Efficacy [3] [%] | pEC50 (Rattus norvegicus [4])
CN(C(=O)CN1C(=O)C(NC(=O)Nc2cccc(C3(C(F)(F)F)N=N3)c2)C(=O)N(c2ccccc2)c2ccccc21)c1ccccc1 (centres undefined) | 6.51 | Not Active | – | –
COc1ccc(N(C(=O)CN2C(=O)C(NC(=O)Nc3cccc(C(=O)c4ccccc4)c3)C(=O)N(c3ccccc3)c3ccccc32)C(C)C)cc1 (centres undefined) | 7.10 | – | 68 | 6.34
CC(C)N(C(=O)CN1C(=O)C(NC(=O)Nc2ccccc2)C(=O)N(c2ccccc2)c2ccccc21)c1ccccc1 (centres undefined) | – | – | 83 | 7.40
COc1ccc(N(C)C(=O)CN2C(=O)C(NC(=O)Nc3ccccc3)C(=O)N(c3ccccc3)c3ccccc32)cc1 (centres undefined) | 6.41 | – | – | –
CC(C)N(C(=O)CN1C(=O)C(NC(=O)Nc2cccc(C(=O)c3ccccc3)c2)C(=O)N(c2ccccc2)c2ccccc21)c1ccccc1 (centres undefined) | 6.80 | – | 64 | 6.14
CSCC[C@H](NC(=O)[C@H](Cc1ccc(OS(=O)(=O)O)cc1)NC(=O)[C@@H](N)CC(=O)O)C(=O)NCC(=O)N[C@@H](Cc1c[nH]c2ccccc12)C(=O)N[C@@H](CCSC)C(=O)N[C@@H](CC(=O)O)C(=O)N[C@@H](Cc1ccccc1)C(N)=O [SINCALIDE] | – | – | – | 10.85
COc1ccc(N(C)C(=O)CN2C(=O)C(NC(=O)Nc3cccc(C4(C(F)(F)F)N=N4)c3)C(=O)N(c3ccccc3)c3ccccc32)cc1 (centres undefined) | 6.39 | Not Active | – | –
CN(C(=O)CN1C(=O)C(NC(=O)Nc2cccc(C(=O)c3ccccc3)c2)C(=O)N(c2ccccc2)c2ccccc21)c1ccccc1 (centres undefined) | 6.54 | – | – | –
COc1ccc(N(C(=O)CN2C(=O)C(NC(=O)Nc3cccc(C4(C(F)(F)F)N=N4)c3)C(=O)N(c3ccccc3)c3ccccc32)C(C)C)cc1 (centres undefined) | 6.36 | – | 75 | 6.22
COc1ccc(N(C(=O)CN2C(=O)C(NC(=O)Nc3ccccc3)C(=O)N(c3ccccc3)c3ccccc32)C(C)C)cc1 (centres undefined) | 7.30 | – | – | –
CC(C)N(C(=O)CN1C(=O)C(NC(=O)Nc2cccc(C3(C(F)(F)F)N=N3)c2)C(=O)N(c2ccccc2)c2ccccc21)c1ccccc1 (centres undefined) | 5.89 | – | 47 | 6.03
COc1ccc(N(C)C(=O)CN2C(=O)C(NC(=O)Nc3cccc(C(=O)c4ccccc4)c3)C(=O)N(c3ccccc3)c3ccccc32)cc1 (centres undefined) | 6.46 | Not Active | – | –
